Patent publication US10752588B2 (The Broad Institute, Inc., priority 2014, dated 2020)
Converted amounts (≈) assume the structure as drawn. Read-outs that look alike come from different tables or passages of the source.

What was measured:
human D2R/β-arrestin [1] = target: T1, human D2R/β-arrestin (Homo sapiens (Human), UniProt P14416); experiment: cell-based; settings: cAMP Antagonist, CHO-K1 cell line expressing human D2R/β-arrestin; quinpirole used as agonist
Plasma stability, rat = assay type: in vitro ADME
[2] = Microsomal stability, rat; assay type: in vitro ADME
D2 = D2 (Homo sapiens (Human), UniProt P14416); experiment: D2 radioligand binding assay
human D2R/β-arrestin [3] = target: T1, human D2R/β-arrestin; experiment: cell-based; settings: β-arrestin Antagonist, CHO-K1 cell line expressing human D2R/β-arrestin; quinpirole used as agonist
[4] = Microsomal stability, mouse
plasma protein [5] = experiment: Plasma protein binding, rat; assay type: in vitro ADME; settings: for fraction unbound: plasma, read-out: Plasma Protein Binding % bound
human D2R/β-arrestin [6] = target: T1, human D2R/β-arrestin; experiment: Gi/cAMP agonist assay (Lance Ultra cAMP, Forskolin); assay type: cell-based; settings: CHO-K1 cell line expressing human D2R/β-arrestin
Summary of the method: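 Cells were plated and incubated before compounds were pin-transferred and incubated for 10 min at 37 °C. Forskolin was then added to stimulate cAMP. cAMP was detected by Lance Ultra TR-FRET using Eu-cAMP tracer and ULight-anti-cAMP antibody.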

Solubility in PBS = assay type: physicochemical
plasma protein [7] = experiment: Plasma protein binding, mouse; assay type: in vitro ADME; settings: for fraction unbound: plasma, read-out: Plasma Protein Binding % bound
Plasma stability, human = assay type: in vitro ADME
[8] = Microsomal stability, human; assay type: in vitro ADME
human D2R/β-arrestin [9] = target: T1, human D2R/β-arrestin; experiment: β-Arrestin agonist assay (PathHunter); assay type: cell-based; settings: CHO-K1 cell line expressing human D2R/β-arrestin
Summary of the method: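 After compound incubation, detection reagent (Buffer:Emerald II:Galactor-Star, 19:5:1) added and luminescence or fluorescence read.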

plasma protein [10] = experiment: Plasma protein binding, human; assay type: in vitro ADME; settings: for fraction unbound: plasma, read-out: Plasma Protein Binding % bound
human D2R/β-arrestin [11] = target: T1, human D2R/β-arrestin; settings: read-out: cAMP Antagonist
human D2R/β-arrestin [12] = target: T1, human D2R/β-arrestin; settings: for IC50: read-out: β-arrestin Antagonist
Caco2 = Caco2 permeability; assay type: in vitro ADME; set-up: unit not given beside the values; settings: for Caco2 A-B: A-B direction; for Caco2 B-A: B-A direction
[13] = Plasma protein binding, mouse; assay type: in vitro ADME; settings: plasma, read-out: Plasma Protein Binding % bound
[14] = Plasma protein binding, human; assay type: in vitro ADME; settings: plasma, read-out: Plasma Protein Binding % bound
[15] = Plasma protein binding, rat; assay type: in vitro ADME; settings: plasma, read-out: Plasma Protein Binding % bound

Chain of D2 (P14416 whole entry): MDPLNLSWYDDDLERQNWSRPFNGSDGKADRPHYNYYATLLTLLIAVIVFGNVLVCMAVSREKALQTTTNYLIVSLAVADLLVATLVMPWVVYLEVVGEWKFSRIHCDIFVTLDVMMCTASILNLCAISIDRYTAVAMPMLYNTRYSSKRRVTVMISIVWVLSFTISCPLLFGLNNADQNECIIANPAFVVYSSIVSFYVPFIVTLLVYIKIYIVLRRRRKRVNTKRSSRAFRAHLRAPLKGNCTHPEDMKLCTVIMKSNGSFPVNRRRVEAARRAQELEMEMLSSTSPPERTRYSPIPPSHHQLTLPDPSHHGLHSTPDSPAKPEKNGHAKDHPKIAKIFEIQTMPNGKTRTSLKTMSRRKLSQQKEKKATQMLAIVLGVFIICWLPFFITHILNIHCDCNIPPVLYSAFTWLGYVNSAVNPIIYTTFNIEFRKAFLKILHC
T1 sequence (P14416 whole entry): as above

Row | SMILES | IC50 (human D2R/β-arrestin [1]) [µM] | Plasma Stability: % remaining after 5 hours (Plasma stability, rat) [%] | Microsomal Stability: % remaining after 60 minutes [2] [%] | Plasma Stability: % remaining after 5 hours (Plasma stability, mouse) [%] | Ki (D2) [µM] | IC50 (human D2R/β-arrestin [3]) [µM] | Microsomal Stability: % remaining after 60 minutes [4] [%] | fraction unbound (plasma protein [5]) | EC50 (human D2R/β-arrestin [6]) [µM] | solubility (Solubility in PBS; aqueous buffer) [µM] | fraction unbound (plasma protein [7]) | Plasma Stability: % remaining after 5 hours (Plasma stability, human) [%] | Microsomal Stability: % remaining after 60 minutes [8] [%] | EC50 (human D2R/β-arrestin [9]) [µM] | fraction unbound (plasma protein [10]) | Caco2 A-B (Caco2) | Caco2 B-A (Caco2) | further results
1 | O=C(NC(c1ccc(Cl)cc1)c1ccccn1)C1CCN(CCn2ccc(=O)cc2)CC1 (centres unmarked) [Compound 11] | 10 to 30 | 100 | 100 | 89.5 | 10 to 30 | > 30 | 100 | 0.211 | > 30 | > 500 | 0.391 | 98.2 | 95 | > 30 | 0.485 | – | – | –
2 | O=C(NC(c1ccc(Cl)cc1)c1ccccn1)C1CCN(CCOc2ccc3ccc(=O)[nH]c3c2)CC1 (centres unmarked) [Compound 15] | – | 91 | 68 | 100 | – | – | 44 | – | > 30 | – | – | 96 | 56 | > 30 | – | – | – | IC50 (human D2R/β-arrestin [11]): > 30 µM; Plasma Protein Binding % bound (plasma protein [5]): 99.0%; solubility (Solubility in PBS): 4.1 µM (≈ 2.12 µg/mL); Plasma Protein Binding % bound (plasma protein [7]): 97.4%; IC50 (human D2R/β-arrestin [12]): 10 to 30 µM; Plasma Protein Binding % bound (plasma protein [10]): 97.7%
3 | O=C(NC(c1ccc(Cl)cc1)c1ccccn1)C1CCN(CCOc2ccc3cccnc3c2)CC1 (centres unmarked) [Compound 16] | > 30 | 97 | 75 | 94 | 10 to 30 | > 30 | 45 | 0.021 | < 0.1 | 14 (≈ 7.01 µg/mL) | 0.023 | 98 | 34 | 1 to 10 | 0.01 | – | – | –
4 | O=C(NC(c1ccc(F)cc1)c1ccccn1)C1CCN(CCOc2ccccc2)CC1 (centres unmarked) [Compound 25] | 10 to 30 | 94.5 | 100 | 97 | 1 to 10 | 1 to 10 | 76 | 0.03 | 10 to 30 | 452 (≈ 196 µg/mL) | 0.047 | 100 | 93 | > 30 | 0.08 | 33.7 | 50.5 | –
5 | O=C(NC(c1ccccn1)c1ccccc1F)C1CCN(CCOc2ccccc2)CC1 (centres unmarked) [Compound 28] | – | 99 | 78 | 95 | – | – | 52 | – | 0.1 to 1 | – | – | 100 | 87 | > 30 | – | – | – | IC50 (human D2R/β-arrestin [11]): > 30 µM; Plasma Protein Binding % bound (plasma protein [5]): 76.7%; solubility (Solubility in PBS): 434 µM (≈ 188 µg/mL); Plasma Protein Binding % bound (plasma protein [7]): 72.2%; IC50 (human D2R/β-arrestin [12]): 1 to 10 µM; Plasma Protein Binding % bound (plasma protein [10]): 75.3%
6 | O=C(NC(c1ccc(Cl)cc1)c1ccccc1F)C1CCN(CCOc2ccccc2)CC1 (centres unmarked) [Compound 40, N((4-chlorophenyl)(2-fluorophenyl)methyl)-1-(2-phenoxyethyl) piperidine-4-carboxamide] | 0.1 to 1 | 90 | 57 | 100 | 1 to 10 | 0.1 to 1 | 50 | 0.023 | > 30 | 0.4 (≈ 0.187 µg/mL) | 0.01 | 100 | 45 | > 30 | 0.011 | 4.4 | 1.9 | –
7 | O=C(NC(c1ccc(F)cc1)c1ccc(Cl)cc1)C1CCN(CCOc2ccccc2)CC1 (centres unmarked) [Compound 42] | 0.1 to 1 | 93 | 70 | 100 | 0.1 to 1 | 0.1 to 1 | 59 | 0.014 | 0.1 to 1 | < 0.1 | 0.007 | 98 | 40 | > 30 | 0.007 | – | – | –
8 | O=C(NC(c1ccc(F)cc1)c1ccccn1)C1CCN(CCOc2ccccc2C(F)(F)F)CC1 (centres unmarked) [Compound 52] | < 0.1 | 55 | 7 | 89 | – | < 0.1 | 7 | 0.021 | > 30 | 27 (≈ 13.5 µg/mL) | 0.009 | 84 | 46 | > 30 | 0.009 | 12.5 | 9.0 | –
9 | O=C(NC(c1ccc(F)cc1)c1ccccn1)C1CCN(CCOc2ccccc2Cl)CC1 (centres unmarked) [Compound 53, 1-(2-(2-chlorophenoxy)ethyl)-N-((4-fluorophenyl)(pyridin-2-yl)methyl) piperidine-4-carboxamide] | < 0.1 | 78 | 16 | 96 | 0.1 to 1 | < 0.1 | 3 | 0.086 | > 30 | 149 (≈ 69.7 µg/mL) | 0.021 | 100 | 42 | > 30 | 0.21 | 27.4 | 23.9 | –
10 | O=C(NC(c1ccc(F)cc1)c1ccccn1)C1CCN(CCOc2ccccc2F)CC1 (centres unmarked) [Compound 54, 1-(2-(2-fluorophenoxy)ethyl)-N-((4-fluorophenyl)(pyridin-2-yl)methyl) piperidine-4-carboxamide] | 0.1 to 1 | 78 | 66 | 100 | – | 0.1 to 1 | 29 | 0.027 | > 30 | > 500 | 0.039 | 96 | 70 | > 30 | 0.042 | 28.4 | 39.3 | –
11 | O=C(NC(c1ccc(Cl)cc1)c1ccccn1)C1CCN(CCOc2ccccc2)CC1 (centres unmarked) [Compound 63, N-((4-chlorophenyl)(pyridin-2-yl)methyl)-1-(2-phenoxyethyl)piperidine-4-carboxamide] | > 30 | – | 55 | 93.4 | 0.1 to 1 | 0.1 to 1 | 37 | – | 0.1 to 1 | 476 (≈ 214 µg/mL) | – | 94.5 | 58 | > 30 | – | 25.1 | 19.9 | fraction unbound [13]: 0.026; functional profile at D2R (antagonist mode) (human D2R/β-arrestin [12]; CHO-K1 cell line expressing human D2R/β-arrestin, β-arrestin and Gi/cAMP pathways, FIG. 1): representative β-arrestin biased D2R antagonists; fraction unbound [14]: 0.037
12 | O=C(NC(c1ccc(Cl)cc1)c1cccnc1)C1CCN(CCOc2ccccc2)CC1 (centres unmarked) [Compound 111, N-((4-chlorophenyl)(pyridin-3-yl)methyl)-1-(2-phenoxyethyl)piperidine-4-carboxamide] | > 30 | 98 | 51 | 100 | – | 0.1 to 1 | 39 | – | 0.1 to 1 | – | – | 100 | 60 | > 30 | – | – | – | fraction unbound [15]: 0.022; fraction unbound [13]: 0.027; fraction unbound [14]: 0.053
